Test results reported in patent publication US20260242839A1, “GLYCOSIDE PRODUCT BIOSYNTHESIS AND RECOVERY” (Manus Bio Inc., priority 2023, published 2026).

B1: SEQ ID NO: 73: HvUGT_B3 (Hordeum vulgare subsp. Vulgare) (protein)
chain: MAEANDGGKMHVVMLPWLAFGHVLPFTEFAKRVARQGHRVTLLSAPRNTRRLIDIPPGLAGLIRVVHVPLPRVDGLPEHAEATIDLPSDHLRPCLRRAFDAAFERELSRLLQEEAKPDWVLVDYASYWAPTAAARHGVPCAFLSLFGAAALSFFGTPETLLGIGRHAKTEPAHLTVVPEYVPFPTTVAYRGYEARELFEPGMVPDDSGVSEGYRFAKTIEGCQLVGIRSSSEFEPEWLRLLGELYRKPVIPVGLFPPAPQDDVAGHEATLRWLDGQAPSSVVYAAFGSEVKLTGAQLQRIALGLEASGLPFIWAFRAPTSTETGAASGGLPEGFEERLAGRGVVCRGWVPQVKFLAHASVGGFLTHAGWNSIAEGLAHGVRLVLLPLVFEQGLNARNIVDKNIGVEVARDEQDGSFAAGDIAAALRRVMVEDEGEGFGAKVKELAKVFGDDEVNDQCVREFLMHLSDHSKKNQGQD
modifications: Hordeum vulgare

Assays:
[1] = maximum solubility of RebM in fermentation broth; assay type: physicochemical
Protocol: Fermentation broth was held at a constant temperature of 70° C. and subjected to different treatments as described in Table 7. RebM was slowly added with constant stirring to determine the maximum solubility of RebM.

[2] = estimated; Prakash et al. 2014; cited from earlier work
[3] = test system: Mog. IIE or Mog. IE; assay: branched glycosylation reactions by cells expressing UGT enzymes; assay type: cell-based, E. coli; details: Mog. IIE or Mog. IE fed; 37° C., 48 hr; LC-MS/MS
Protocol: Mog. IIE or Mog. IE was fed to cells expressing various UGT enzymes. Reactions were incubated at 37° C. for 48 hr. Products were quantified by LC-MS/MS with authentic standards of each compound. “Indirect” evidence means that consumption of substrate was observed.

[4] = test system: Mog. I-E; assay: production of Mog. II-A2 from Mog. I-E; assay type: cell-based, E. coli; details: 37° C., 48 hr; FIG. 20
Protocol: II-A2. Mog. I-E was fed in vitro. In the experiment, engineered E. coli strains (chassis strain) expressing UGT enzyme SEQ ID NO: 73 were incubated at 37° C. for 48 hr. Products were quantified by LC-MS/MS with authentic standards of each compound. […] IE to Mog. II-A2.

Row | Molecule | RebM solubility ([1]; pH 3.5, 70.8 ° C., no small molecule enhancer) | RebM solubility ([1]; pH 7, 70.8 ° C., Glycerol 0.5 wt %) | RebM solubility ([1]; pH 7, 70.8 ° C., no small molecule enhancer) | RebM solubility ([1]; pH 11.6, 70.8 ° C., 1,3-Propanediol 0.5 wt %) | RebM solubility ([1]; pH 11.6, 70.8 ° C., Glycerol 0.5 wt %) | times more potent than sucrose [2] | C3 1-2 [3] | C3 1-6 [3] | C24 1-2 [3] | C24 1-6 [3] | bioconversion of Mog. IE to Mog. II-A2 [4]
1 | C=C1C[C@@]23CC[C@H]4[C@@](C)(CCC[C@@]4(C)C(=O)O[C@@H]4O[C@H](CO)[C@@H](O)[C@H](O[C@@H]5O[C@H](CO)[C@@H](O)[C@H](O)[C@H]5O)[C@H]4O[C@@H]4O[C@H](CO)[C@@H](O)[C@H](O)[C@H]4O)[C@@H]2CC[C@]1(O[C@@H]1O[C@H](CO)[C@@H](O)[C@H](O[C@@H]2O[C@H](CO)[C@@H](O)[C@H](O)[C@H]2O)[C@H]1O[C@@H]1O[C@H](CO)[C@@H](O)[C@H](O)[C@H]1O)C3 [RebM, rebaudioside M] | 68.9 mg/mL | 119.0 mg/mL | 29.9 mg/mL | 151.3 mg/mL | 151.3 mg/mL | 200-350 times |  |  |  |  | 
2 | B1 |  |  |  |  |  |  | No | Yes | No | Yes | able to catalyze bioconversion of Mog. IE to Mog. II-A2
